Test results published in PubChem BioAssay (NCI).
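All cell lines were grown in 96-well plates and treated with compound for 48 hours. The concentration for full growth arrest is given as TGI.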

Assays:
Experiment in all cases: NCI anticancer screen, dose series, 48 h
786-0 renal = tested on: 786-0 renal
A498 renal = tested on: A498 renal
A549 NSCLC = tested on: A549 NSCLC
ACHN renal = tested on: ACHN renal
BT-549 breast = tested on: BT-549 breast
CAKI-1 renal = tested on: CAKI-1 renal
CCRF-CEM leukemia = tested on: CCRF-CEM leukemia
COLO 205 colon = tested on: COLO 205 colon
DU-145 prostate = tested on: DU-145 prostate
EKVX NSCLC = tested on: EKVX NSCLC
HCC-2998 colon = tested on: HCC-2998 colon
HCT-116 colon = tested on: HCT-116 colon
HCT-15 colon = tested on: HCT-15 colon
HOP-62 NSCLC = tested on: HOP-62 NSCLC
HOP-92 NSCLC = tested on: HOP-92 NSCLC
HS 578T breast = tested on: HS 578T breast
HT29 colon = tested on: HT29 colon
IGROV1 ovarian = tested on: IGROV1 ovarian
K-562 leukemia = tested on: K-562 leukemia
KM12 colon = tested on: KM12 colon
LOX IMVI melanoma = tested on: LOX IMVI melanoma
M14 melanoma = tested on: M14 melanoma
MALME-3M melanoma = tested on: MALME-3M melanoma
MCF7 breast = tested on: MCF7 breast
MDA-MB-231 breast = tested on: MDA-MB-231 breast
MDA-MB-435 = tested on: MDA-MB-435
MDA-N = tested on: MDA-N
MOLT-4 leukemia = tested on: MOLT-4 leukemia
NCI-H226 lung = tested on: NCI-H226 lung
NCI-H23 lung = tested on: NCI-H23 lung
NCI-H460 lung = tested on: NCI-H460 lung
NCI-H522 lung = tested on: NCI-H522 lung
NCI/ADR-RES ovarian = tested on: NCI/ADR-RES ovarian
OVCAR-3 ovarian = tested on: OVCAR-3 ovarian
OVCAR-4 ovarian = tested on: OVCAR-4 ovarian
OVCAR-5 ovarian = tested on: OVCAR-5 ovarian
OVCAR-8 ovarian = tested on: OVCAR-8 ovarian
PC-3 prostate = tested on: PC-3 prostate
RPMI-8226 leukemia = tested on: RPMI-8226 leukemia
RXF 393 renal = tested on: RXF 393 renal
SF-268 CNS = tested on: SF-268 CNS
SF-295 CNS = tested on: SF-295 CNS
SF-539 CNS = tested on: SF-539 CNS
SK-MEL-2 melanoma = tested on: SK-MEL-2 melanoma
SK-MEL-5 melanoma = tested on: SK-MEL-5 melanoma
SK-OV-3 ovarian = tested on: SK-OV-3 ovarian
SN12C renal = tested on: SN12C renal
SNB-19 CNS = tested on: SNB-19 CNS
SNB-75 CNS = tested on: SNB-75 CNS
T-47D breast = tested on: T-47D breast
TK-10 renal = tested on: TK-10 renal
U251 CNS = tested on: U251 CNS
UACC-257 melanoma = tested on: UACC-257 melanoma
UACC-62 melanoma = tested on: UACC-62 melanoma
UO-31 renal = tested on: UO-31 renal
HL-60(TB) leukemia = tested on: HL-60(TB) leukemia
SK-MEL-28 melanoma = tested on: SK-MEL-28 melanoma
SR leukemia = tested on: SR leukemia
SW-620 colon = tested on: SW-620 colon

C[C@]12CC/C(=N\OCCN3CCCC3)C=C1CCC1C2CC[C@@]2(C)C1CC[C@]2(C)O (stereo partly specified)
TGI (786-0 renal): 14.8 µM
TGI (A498 renal): 4.7 µM
TGI (A549 NSCLC): 42.5 µM
TGI (ACHN renal): 50.3 µM
TGI (BT-549 breast): 28.2 µM
TGI (CAKI-1 renal): 24.1 µM
TGI (CCRF-CEM leukemia): 9.6 µM
TGI (COLO 205 colon): 11.9 µM
TGI (DU-145 prostate): 39.5 µM
TGI (EKVX NSCLC): 34 µM
TGI (HCC-2998 colon): 24.3 µM
TGI (HCT-116 colon): 18 µM
TGI (HCT-15 colon): 15 µM
TGI (HOP-62 NSCLC): 50 µM
TGI (HOP-92 NSCLC): 32.3 µM
TGI (HS 578T breast): 43.7 µM
TGI (HT29 colon): 5.69 µM
TGI (IGROV1 ovarian): 35.9 µM
TGI (K-562 leukemia): 14.2 µM
TGI (KM12 colon): 19.1 µM
TGI (LOX IMVI melanoma): 15.1 µM
TGI (M14 melanoma): 37.1 µM
TGI (MALME-3M melanoma): 18.7 µM
TGI (MCF7 breast): > 100 µM
TGI (MDA-MB-231 breast): 34 µM
TGI (MDA-MB-435): 6.67 µM
TGI (MDA-N): 6.33 µM
TGI (MOLT-4 leukemia): 12.6 µM
TGI (NCI-H226 lung): 11.8 µM
TGI (NCI-H23 lung): 35.8 µM
TGI (NCI-H460 lung): 16.3 µM
TGI (NCI-H522 lung): 8.57 µM
TGI (NCI/ADR-RES ovarian): 15.4 µM
TGI (OVCAR-3 ovarian): 24.1 µM
TGI (OVCAR-4 ovarian): 82.4 µM
TGI (OVCAR-5 ovarian): > 100 µM
TGI (OVCAR-8 ovarian): 31.6 µM
TGI (PC-3 prostate): 71.7 µM
TGI (RPMI-8226 leukemia): 14 µM
TGI (RXF 393 renal): 75.5 µM
TGI (SF-268 CNS): 31.9 µM
TGI (SF-295 CNS): 12.3 µM
TGI (SF-539 CNS): 22.9 µM
TGI (SK-MEL-2 melanoma): 44.2 µM
TGI (SK-MEL-5 melanoma): 29.9 µM
TGI (SK-OV-3 ovarian): 44.5 µM
TGI (SN12C renal): 21.3 µM
TGI (SNB-19 CNS): 49 µM
TGI (SNB-75 CNS): 11.9 µM
TGI (T-47D breast): 64 µM
TGI (TK-10 renal): 37 µM
TGI (U251 CNS): 20.2 µM
TGI (UACC-257 melanoma): 17.8 µM
TGI (UACC-62 melanoma): 11.8 µM
TGI (UO-31 renal): 24.4 µM

CN1CC[C@@]2(c3cccc(O)c3)CC(=O)/C(=C/c3ccc(Cl)c(Cl)c3)[C@H]1C2
TGI (786-0 renal): 3.07 µM
TGI (A498 renal): 26.5 µM
TGI (A549 NSCLC): 11.5 µM
TGI (ACHN renal): 3.38 µM
TGI (BT-549 breast): 4.33 µM
TGI (CCRF-CEM leukemia): > 100 µM
TGI (DU-145 prostate): 16.4 µM
TGI (EKVX NSCLC): 21 µM
TGI (HCC-2998 colon): 3.37 µM
TGI (HCT-15 colon): 3.77 µM
TGI (HL-60(TB) leukemia): 3.82 µM
TGI (HOP-62 NSCLC): 6.2 µM
TGI (HOP-92 NSCLC): 18.1 µM
TGI (HS 578T breast): 7.19 µM
TGI (HT29 colon): 2.72 µM
TGI (IGROV1 ovarian): 5.65 µM
TGI (K-562 leukemia): 3.66 µM
TGI (LOX IMVI melanoma): 2.81 µM
TGI (M14 melanoma): 5.02 µM
TGI (MALME-3M melanoma): 13.1 µM
TGI (MDA-MB-435): 2.8 µM
TGI (MDA-N): 3.77 µM
TGI (MOLT-4 leukemia): 8.47 µM
TGI (NCI-H23 lung): 15.9 µM
TGI (NCI-H460 lung): 4.72 µM
TGI (NCI/ADR-RES ovarian): 7.09 µM
TGI (OVCAR-3 ovarian): 4.07 µM
TGI (OVCAR-4 ovarian): 17.2 µM
TGI (OVCAR-5 ovarian): 14.4 µM
TGI (OVCAR-8 ovarian): 10.1 µM
TGI (PC-3 prostate): 3.07 µM
TGI (RPMI-8226 leukemia): 4.37 µM
TGI (RXF 393 renal): 5.62 µM
TGI (SF-268 CNS): 7.01 µM
TGI (SF-295 CNS): 3.86 µM
TGI (SK-MEL-28 melanoma): 4.65 µM
TGI (SK-MEL-5 melanoma): 5.53 µM
TGI (SN12C renal): 3.89 µM
TGI (SNB-19 CNS): 12.5 µM
TGI (SNB-75 CNS): 2.63 µM
TGI (SR leukemia): 5.92 µM
TGI (SW-620 colon): 3.06 µM
TGI (TK-10 renal): 27 µM
TGI (U251 CNS): 2.67 µM
TGI (UACC-257 melanoma): 12.6 µM
TGI (UO-31 renal): 4.33 µM
